Columns and labels:
rice = assay: Test B flood test rice; format: in vivo, Oryza sativa
How it was run: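 Plants were grown to the 2-leaf stage before treatment with test chemical, then held in a greenhouse for twelve to sixteen days. Injury was visually rated against untreated controls on a 0–10 scale, where 0 is no effect and 10 is complete control.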

smallflower flatsedge = assay: Test B flood test smallflower flatsedge; format: in vivo, Cyperus difformis
Description: (§1) At the same time, these crop and weed species were also treated with postemergence applications of test chemicals formulated in the same manner. Plants ranged in height from 2 to 18 cm (1- to 4-leaf stage) for postemergence treatments. Plant species in the flood test consisted of rice (Oryza sativa), smallflower flatsedge (Cyperus difformis), duck salad (Heteranthera limosa) and bamyardgrass (Echinochloa crus-galli) grown to the 2-leaf stage for testing. Treated plants and controls were maintained in a greenhouse for twelve to sixteen days, after which all species were compared to controls and visually evaluated. Plant response ratings, summarized in Table B, are based on a scale of 0 to 10 where 0 is no effect and 10 is complete control. A dash (−) response means no test result.

duck salad = assay: Test B flood test duck salad; format: in vivo, Heteranthera limosa
Description: as §1

bamyardgrass = assay: Test B flood test barnyardgrass; format: in vivo, Echinochloa crus-galli
Description: as §1

bedstraw = assay: Test B pre/postemergence bedstraw; format: in vivo, Galium aparine
How it was run: (§2)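 Test chemicals in a non-phytotoxic solvent mixture with surfactant were sprayed preemergence onto planted seeds and postemergence onto plants 2 to 18 cm tall (1- to 4-leaf stage). After twelve to sixteen days in a greenhouse, injury was visually rated against untreated controls from 0 (no effect) to 10 (complete control).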

blackgrass = assay: Test B pre/postemergence blackgrass; format: in vivo, Alopecurus myosuroides
How it was run: as §2

surinam grass = assay: Test B pre/postemergence surinam grass; format: in vivo, Brachiaria decumbens
How it was run: as §2

cocklebur = assay: Test B pre/postemergence cocklebur; format: in vivo, Xanthium strumarium
How it was run: as §2

corn = assay: Test B pre/postemergence corn; format: in vivo, Zea mays
How it was run: as §2

crabgrass = assay: Test B pre/postemergence crabgrass; format: in vivo, Digitaria sanguinalis
How it was run: as §2

giant foxtail = assay: Test B pre/postemergence giant foxtail; format: in vivo, Setaria faberii
How it was run: as §2

morningglory = assay: Test B pre/postemergence morningglory; format: in vivo, Ipomoea hederacea
How it was run: as §2

pigweed = assay: Test B pre/postemergence pigweed; format: in vivo, Amaranthus retroflexus
How it was run: as §2

rape = assay: Test B pre/postemergence rape; format: in vivo, Brassica napus
How it was run: as §2

soybean = assay: Test B pre/postemergence soybean; format: in vivo, Glycine max
How it was run: as §2

sugar beet = assay: Test B pre/postemergence sugar beet; format: in vivo, Beta vulgaris
How it was run: as §2

velvetleaf = assay: Test B pre/postemergence velvetleaf; format: in vivo, Abutilon theophrasti
How it was run: as §2

wheat = assay: Test B pre/postemergence wheat; format: in vivo, Triticum aestivum
How it was run: as §2

wild oat = assay: Test B pre/postemergence wild oat; format: in vivo, Avena fatua
How it was run: as §2

purple nutsedge = assay: Test B pre/postemergence purple nutsedge; format: in vivo, Cyperus rotundus
How it was run: as §2

[1] = Rate 62 g/ha, flood test species, Pre-emergence, visual evaluation after twelve to sixteen days
[2] = Rate 125 g/ha, Pre-emergence section (flood test species), scale 0 to 10, 0 no effect, 10 complete control
[3] = Rate 250 g/ha, Pre-emergence (flood test species), scale 0 to 10, 0 is no effect, 10 is complete control
[4] = Rate 500 g/ha, Pre-emergence section of Table B, 0 to 10 scale (0 no effect, 10 complete control)
[5] = Postemergence, Rate 62 g/ha, scale 0 to 10, 0 is no effect, 10 is complete control
[6] = Postemergence, Rate 125 g/ha, scale of 0 to 10 where 0 is no effect and 10 is complete control
[7] = Postemergence, Rate 500 g/ha, scale 0 (no effect) to 10 (complete control)
[8] = Preemergence, Rate 250 g/ha, scale 0 (no effect) to 10 (complete control)
[9] = Rate 62 g/ha, Preemergence, scale 0 to 10
[10] = Rate 125 g/ha, Preemergence, scale 0 to 10 (0 no effect, 10 complete control)
[11] = Rate 250 g/ha, Postemergence, scale 0 to 10, 0 is no effect, 10 is complete control
[12] = Rate 500 g/ha, Preemergence, scale 0 to 10 (0 no effect, 10 complete control)

## CC(C)N(C(=O)n1oc(=O)n(C(C)C(=O)N2CCOCC2)c1=O)c1ccc(F)cc1 (stereo not shown) [Compound 705]
rice; [1]
  Plant response rating, Rice (0 to 10 scale, 0 is no effect, 10 is complete control): 0
rice; [2]
  Rice plant response rating: 1
rice; [3]
  Rice plant response rating: 2
rice; [4]
  Rice plant response rating: 2
Smallflower flatsedge; [1]
  Plant response rating, S. Flatsedge (0 to 10 scale, 0 is no effect, 10 is complete control): 0
Smallflower flatsedge; [2]
  S. Flatsedge plant response rating: 0
Smallflower flatsedge; [3]
  S. Flatsedge plant response rating: 0
Smallflower flatsedge; [4]
  S. Flatsedge plant response rating: 0
Duck salad; [1]
  Plant response rating, Ducksalad (0 to 10 scale, 0 is no effect, 10 is complete control): 0
Duck salad; [2]
  Ducksalad plant response rating: 0
Duck salad; [3]
  Ducksalad plant response rating: 0
Duck salad; [4]
  Ducksalad plant response rating: 0
bamyardgrass; [1]
  Plant response rating, Barnyardgrass (0 to 10 scale, 0 is no effect, 10 is complete control): 0
bamyardgrass; [2]
  Barnyardgrass plant response rating: 0
bamyardgrass; [3]
  Barnyardgrass plant response rating: 2
bamyardgrass; [4]
  Barnyardgrass plant response rating: 2

## CCOC(CC)n1c(=O)on(C(=O)N(c2ccc(F)cc2F)C(C)C)c1=O (stereo not shown) [Compound 774]
bedstraw; [5]
  Plant response rating, Bedstraw: 0
bedstraw; [6]
  Bedstraw plant response rating: 0
bedstraw; [7]
  Bedstraw plant response rating: 0
bedstraw; [8]
  Bedstraw plant response rating: 0
bedstraw; [9]
  Bedstraw plant response rating: 0
bedstraw; [10]
  Bedstraw plant response rating: 0
bedstraw; [11]
  Bedstraw plant response rating: 0
bedstraw; [12]
  Bedstraw plant response rating: 0
blackgrass; [5]
  Plant response rating, Blackgrass: 0
blackgrass; [6]
  Blackgrass plant response rating: 0
blackgrass; [7]
  Blackgrass plant response rating: 0
blackgrass; [8]
  Blackgrass plant response rating: 0
blackgrass; [9]
  Blackgrass plant response rating: 0
blackgrass; [10]
  Blackgrass plant response rating: 0
blackgrass; [11]
  Blackgrass plant response rating: 0
blackgrass; [12]
  Blackgrass plant response rating: 0
Surinam grass; [5]
  Plant response rating, B. signalgrass: 0
Surinam grass; [6]
  B. signalgrass plant response rating: 0
Surinam grass; [8]
  B. signalgrass plant response rating: 0
Surinam grass; Rate 62 g/ha, Preemergence, scale 0 (no effect) to 10 (complete control)
  B. signalgrass plant response rating: 0
Surinam grass; [10]
  B. signalgrass plant response rating: 0
Surinam grass; [11]
  B. signalgrass plant response rating: 0
Surinam grass; Rate 500 g/ha, Postemergence, scale 0 to 10, 0 is no effect, 10 is complete control
  B. signalgrass plant response rating: 0
Surinam grass; [12]
  B. signalgrass plant response rating: 0
cocklebur; [5]
  Plant response rating, Cocklebur: 0
cocklebur; [6]
  Cocklebur plant response rating: 0
cocklebur; [7]
  Cocklebur plant response rating: 0
cocklebur; [8]
  Cocklebur plant response rating: 0
cocklebur; [9]
  Cocklebur plant response rating: 0
cocklebur; [10]
  Cocklebur plant response rating: 0
cocklebur; [11]
  Cocklebur plant response rating: 0
cocklebur; [12]
  Cocklebur plant response rating: 0
corn; [5]
  Plant response rating, Corn: 0
corn; [6]
  Corn plant response rating: 0
corn; [7]
  Corn plant response rating: 0
corn; [8]
  Corn plant response rating: 0
corn; [9]
  Corn plant response rating: 0
corn; [10]
  Corn plant response rating: 0
corn; [11]
  Corn plant response rating: 0
corn; [12]
  Corn plant response rating: 0
crabgrass; [5]
  Plant response rating, Crabgrass: 0
crabgrass; [6]
  Crabgrass plant response rating: 0
crabgrass; [7]
  Crabgrass plant response rating: 0
crabgrass; [8]
  Crabgrass plant response rating: 0
crabgrass; [9]
  Crabgrass plant response rating: 0
crabgrass; [10]
  Crabgrass plant response rating: 0
crabgrass; [11]
  Crabgrass plant response rating: 0
crabgrass; [12]
  Crabgrass plant response rating: 0
Giant foxtail; [5]
  Plant response rating, Giant foxtail: 0
Giant foxtail; [6]
  Giant foxtail plant response rating: 0
Giant foxtail; [7]
  Giant foxtail plant response rating: 0
Giant foxtail; [8]
  Giant foxtail plant response rating: 0
Giant foxtail; [9]
  Giant foxtail plant response rating: 0
Giant foxtail; [10]
  Giant foxtail plant response rating: 0
Giant foxtail; [11]
  Giant foxtail plant response rating: 0
Giant foxtail; [12]
  Giant foxtail plant response rating: 0
morningglory; [5]
  Plant response rating, Morningglory: 0
morningglory; [6]
  Morningglory plant response rating: 0
morningglory; [7]
  Morningglory plant response rating: 0
morningglory; [9]
  Morningglory plant response rating: 0
morningglory; [10]
  Morningglory plant response rating: 0
morningglory; [11]
  Morningglory plant response rating: 0
morningglory; [12]
  Morningglory plant response rating: 0
pigweed; [5]
  Plant response rating, Redroot pigweed: 0
pigweed; [6]
  Redroot pigweed plant response rating: 0
pigweed; [7]
  Redroot pigweed plant response rating: 0
pigweed; [9]
  Redroot pigweed plant response rating: 0
pigweed; [10]
  Redroot pigweed plant response rating: 0
pigweed; [11]
  Redroot pigweed plant response rating: 0
pigweed; [12]
  Redroot pigweed plant response rating: 0
rape; [5]
  Plant response rating, Rape: 0
rape; [6]
  Rape plant response rating: 0
rape; [7]
  Rape plant response rating: 0
rape; [9]
  Rape plant response rating: 0
rape; [10]
  Rape plant response rating: 0
rape; [11]
  Rape plant response rating: 0
rape; [12]
  Rape plant response rating: 0
soybean; [5]
  Plant response rating, Soybean: 0
soybean; [7]
  Soybean plant response rating: 0
soybean; [9]
  Soybean plant response rating: 0
soybean; [10]
  Soybean plant response rating: 0
soybean; [11]
  Soybean plant response rating: 0
soybean; [12]
  Soybean plant response rating: 0
Sugar beet; [5]
  Plant response rating, Sugarbeets: 0
Sugar beet; [7]
  Sugarbeets plant response rating: 0
Sugar beet; [9]
  Sugarbeets plant response rating: 0
Sugar beet; [10]
  Sugarbeets plant response rating: 0
Sugar beet; [11]
  Sugarbeets plant response rating: 0
Sugar beet; [12]
  Sugarbeets plant response rating: 0
velvetleaf; [5]
  Plant response rating, Velvetleaf: 0
velvetleaf; [7]
  Velvetleaf plant response rating: 0
velvetleaf; [9]
  Velvetleaf plant response rating: 0
velvetleaf; [10]
  Velvetleaf plant response rating: 0
velvetleaf; [11]
  Velvetleaf plant response rating: 0
velvetleaf; [12]
  Velvetleaf plant response rating: 0
wheat; [5]
  Plant response rating, Wheat: 0
wheat; [7]
  Wheat plant response rating: 0
wheat; [9]
  Wheat plant response rating: 0
wheat; [10]
  Wheat plant response rating: 0
wheat; [11]
  Wheat plant response rating: 0
wheat; [12]
  Wheat plant response rating: 0
Wild oat; [5]
  Plant response rating, Wild oats: 0
Wild oat; [7]
  Wild oats plant response rating: 0
Wild oat; [9]
  Wild oats plant response rating: 0
Wild oat; [10]
  Wild oats plant response rating: 0
Wild oat; [11]
  Wild oats plant response rating: 0
Wild oat; [12]
  Wild oats plant response rating: 0
Purple nutsedge; [5]
  Plant response rating, Nutsedge: 0
Purple nutsedge; [6]
  Nutsedge plant response rating: 0
Purple nutsedge; [7]
  Nutsedge plant response rating: 0
Purple nutsedge; [9]
  Nutsedge plant response rating: 0
Purple nutsedge; [10]
  Nutsedge plant response rating: 0
Purple nutsedge; [11]
  Nutsedge plant response rating: 0
Purple nutsedge; [12]
  Nutsedge plant response rating: 0
